# Reference: patent US11970473B2, “Nootkatone derivatives and methods of using the same” (Arkansas State University—Jonesboro, priority 2021, dated 2024)
# Read-outs that look alike come from different tables or passages of the source.
# Legend:
# [1] = tested on: B. subtilis ATCC 6623 (Bs); assay: Minimal inhibitory concentration (MIC) assay; type: cell-based; conditions: Bacillus subtilis
# Protocol: (§1) Minimal inhibitory concentration (MIC) assay The standard microdilution method recommended by the Clinical and Laboratory Standards Institute (CLSI) was used to determine the MIC of the antibiotics. The starting concentration of compounds was 50 μg/ml and 2-fold dilution was done down the 96 honeycomb well plate column. The MIC assay was conducted in triplicates.
# [2] = tested on: Enterococcus faecalis ATCC 29212 (Es12); assay: Minimal inhibitory concentration (MIC) assay; type: cell-based
# Protocol: as §1
# [3] = tested on: Enterococcus faecium ATCC 700221 (Em21); assay: Minimal inhibitory concentration (MIC) assay; type: cell-based; conditions: Enterococcus faecium
# Protocol: as §1
# [4] = tested on: S. aureus ATCC 25923 (Sa23); assay: Minimal inhibitory concentration (MIC) assay; type: cell-based; conditions: Staphylococcus aureus
# Protocol: as §1
# [5] = tested on: S. aureus ATCC 33591 (Sa91); assay: Minimal inhibitory concentration (MIC) assay; type: cell-based; conditions: Staphylococcus aureus
# Protocol: as §1
# [6] = tested on: S. aureus ATCC 33592 (Sa92); assay: Minimal inhibitory concentration (MIC) assay; type: cell-based; conditions: Staphylococcus aureus
# Protocol: as §1
# [7] = tested on: S. aureus ATCC 700699 (Sa99); assay: Minimal inhibitory concentration (MIC) assay; type: cell-based; conditions: Staphylococcus aureus
# Protocol: as §1
# [8] = tested on: S. aureus BAA-2312 (Sa12); assay: Minimal inhibitory concentration (MIC) assay; type: cell-based; conditions: Staphylococcus aureus
# Protocol: as §1
# [9] = tested on: S. epidermidis 700296 (Se); assay: Minimal inhibitory concentration (MIC) assay; type: cell-based; conditions: Staphylococcus epidermidis, read-out: Antimicrobial activity (MIC) Se
# Protocol: as §1
# MRSA persisters = assay: Persister Cell Killing Assay; conditions: after 4 hrs exposure; 128×MIC
# Protocol: A persister cell killing assay was performed following the methodology described by Kim et. al. with some modifications.^28 S. aureus strain was grown to stationary phase in CAMHB medium by shaking at 200 rpm overnight at 35° C. An aliquot of stationary phase culture (1 ml) was washed thrice with 1×PBS by centrifugation. After washing, the cells were diluted to ˜5×10^8 CFU/ml (confirmed by plate count). Diluted persister cells (2 ml) plus antibiotics at the desired concentration were incubated in sterile 10×75 mm plastic culture tubes at 35° C. with shaking at 200 rpm. At specific times, 400 μl aliquots were placed into microcentrifuge tubes and the cells washed and serially diluted in PBS. The diluted sample was plated on TSA agar plate with 5% sheep blood by the 6×6 drop plate method. Plates were incubated for 18-20 hours at 35° C., and then colonies were counted to calculate concentrations in CFU/ml. The experiment was performed in triplicates.
# S. aureus strains = assay: MIC, summary over S. aureus strains; type: cell-based; conditions: two MRSA strains
# Protocol: as §1
# [10] = tested on: S. aureus ATCC 700699 and S. aureus ATCC 33591; assay: Time-Kill Assay; type: cell-based; conditions: 4×MIC
# Protocol: Time kill assay for test antibiotics against S. aureus ATCC 700699 and S. aureus ATCC 33591 strains was conducted using procedures published previously.^26 Briefly, a log-phase bacterial culture was diluted to ˜5×10^6 CFU/ml in warm sterile CAMHB broth and was exposed to antibiotics at 4×MIC concentration then incubated at 35° C. Samples of 20 μl were taken every 2 hours, diluted 10 fold to 10^−5, and the 6×6 drop plate method was performed to determine viable CFU/ml after 18-24 hours of incubation at 35° C. Each antibiotic time-kill assay was conducted in triplicate.
# [11] = ATCC6623, B. subtilis ATCC 6623, read-out: Antimicrobial activity (MIC) Bs
# [12] = ATCC29212, Enterococcus faecalis ATCC 29212, read-out: Antimicrobial activity (MIC) Es12
# [13] = ATCC700221, Enterococcus faecium ATCC 700221, read-out: Antimicrobial activity (MIC) Em21
# [14] = ATCC25923, S. aureus ATCC 25923, antibiotic susceptible strain, read-out: Antimicrobial activity (MIC) Sa23
# [15] = ATCC33591, S. aureus ATCC 33591, antibiotic-resistant strain, read-out: Antimicrobial activity (MIC) Sa91
# [16] = ATCC33592, S. aureus ATCC 33592, antibiotic-resistant strain, read-out: Antimicrobial activity (MIC) Sa92
# [17] = ATCC700699, S. aureus ATCC 700699, antibiotic-resistant strain, read-out: Antimicrobial activity (MIC) Sa99
# [18] = BAA2312, S. aureus BAA-2312, antibiotic-resistant strain, read-out: Antimicrobial activity (MIC) Sa12
Molecule,"MIC [1, 11] [µg/mL]","MIC [2, 12] [µg/mL]","MIC [3, 13] [µg/mL]","MIC [4, 14] [µg/mL]","MIC [5, 15] [µg/mL]","MIC [6, 16] [µg/mL]","MIC [7, 17] [µg/mL]","MIC [8, 18] [µg/mL]",MIC ([9]; S. epidermidis 700296) [µg/mL],also measured
"C=C(C)[C@@H]1CC=C2c3sc(-c4cccc(O)c4)nc3C[C@@H](C)[C@]2(C)C1 [Compound 14, 3-[(5R,5aS,7R)-7-isopropenyl-5,5a-dimethyl-5,6,7,8-tetrahydro-4H-benzo[g][1,3]benzothiazol-2-yl]phenol]",> 100,> 100,> 100,50,> 100,> 100,> 100,> 100,> 100,
"C=C(C)[C@@H]1CC=C2c3sc(Nc4ccc(OC(F)(F)F)cc4)nc3C[C@@H](C)[C@]2(C)C1 [Compound 26, (5R,5aS,7R)-7-isopropenyl-5,5a-dimethyl-N-[4-(trifluoromethoxy)phenyl]-5,6,7,8-tetrahydro-4H-benzo[g][1,3]benzothiazol-2-amine]",100,> 100,> 100,50,> 100,> 100,> 100,> 100,> 100,
gentamycin [reference compound],,,,,,,,,,CFU count (MRSA persisters): 2.2×10^8 CFU
"C=C(C)[C@@H]1CC=C2c3sc(-c4cccc(OCC)c4)nc3C[C@@H](C)[C@]2(C)C1 [Compound 11, (5R,5aS,7R)-2-(3-ethoxyphenyl)-7-isopropenyl-5,5a-dimethyl-5,6,7,8-tetrahydro-4H-benzo[g][1,3]benzothiazole]",> 100,> 100,> 100,50,> 100,> 100,> 100,> 100,> 100,
"C=C(C)[C@@H]1CC=C2c3sc(-c4ccc(F)c(F)c4)nc3C[C@@H](C)[C@]2(C)C1 [Compound 21, (5R,5aS,7R)-2-(3,4-difluorophenyl)-7-isopropenyl-5,5a-dimethyl-5,6,7,8-tetrahydro-4H-benzo[g][1,3]benzothiazole]",> 100,> 100,> 100,100,> 100,1.56,> 100,> 100,> 100,
"C=C(C)[C@@H]1CC=C2c3sc(Nc4ccc(F)cc4F)nc3C[C@@H](C)[C@]2(C)C1 [Compound 25, (5R,5aS,7R)—N-(2,4-difluorophenyl)-7-isopropenyl-5,5a-dimethyl-5,6,7,8-tetrahydro-4H-benzo[g][1,3]benzothiazol-2-amine]",> 100,> 100,> 100,100,> 100,> 100,> 100,> 100,> 100,
"C=C(C)[C@@H]1CC=C2c3sc(-c4ccc5c(c4)OCO5)nc3C[C@@H](C)[C@]2(C)C1 [Compound 17, (5R,5aS,7R)-2-(1,3-benzodioxol-5-yl)-7-isopropenyl-5,5a-dimethyl-5,6,7,8-tetrahydro-4H-benzo[g][1,3]benzothiazole]",12.5,> 100,> 100,> 100,25,> 100,> 100,> 100,25,activity against MRSA strains (S. aureus strains): moderate activity
"C=C(C)[C@@H]1CC=C2c3sc(-c4ccc(F)cc4)nc3C[C@@H](C)[C@]2(C)C1 [Compound 18, (5R,5aS,7R)-2-(4-fluorophenyl)-7-isopropenyl-5,5a-dimethyl-5,6,7,8-tetrahydro-4H-benzo[g][1,3]benzothiazole]",> 100,> 100,> 100,> 100,50,> 100,> 100,25,> 100,
"CN[C@H](CC(C)C)C(=O)N[C@H]1C(=O)N[C@@H](CC(N)=O)C(=O)N[C@H]2C(=O)N[C@H]3C(=O)N[C@H](C(=O)N[C@H](C(=O)O)c4cc(O)cc(O)c4-c4cc3ccc4O)[C@H](O)c3ccc(c(Cl)c3)Oc3cc2cc(c3O[C@@H]2O[C@H](CO)[C@@H](O)[C@H](O)[C@H]2O[C@H]2C[C@](C)(N)[C@H](O)[C@H](C)O2)Oc2ccc(cc2Cl)[C@H]1O [VC, vancomycin, reference compound]",,,,,,,,,,"MIC ([1]; ATCC6623, read-out: Antimicrobial activity (MIC) Bs): 0.39 µg/mL; MIC ([2]; Enterococcus faecalis, ATCC29212, read-out: Antimicrobial activity (MIC) Es12): 3.12 µg/mL; MIC ([3]; ATCC700221, read-out: Antimicrobial activity (MIC) Em21): > 100 µg/mL; MIC ([4]; ATCC25923, read-out: Antimicrobial activity (MIC) Sa23): 3.12 µg/mL; MIC ([5]; ATCC33591, read-out: Antimicrobial activity (MIC) Sa91): 1.56 µg/mL; MIC ([6]; ATCC33592, read-out: Antimicrobial activity (MIC) Sa92): 1.56 µg/mL; MIC ([7]; ATCC700699, read-out: Antimicrobial activity (MIC) Sa99): 0.78 µg/mL; MIC ([8]; BAA2312, read-out: Antimicrobial activity (MIC) Sa12): 0.78 µg/mL; MIC [9]: 1.56 µg/mL; eliminated bacteria at [10]: 10 h; CFU count (MRSA persisters): 2.4×10^7 CFU"
"C=C(C)[C@@H]1CC=C2c3sc(-c4ccc(Br)cc4)nc3C[C@@H](C)[C@]2(C)C1 [Compound 20, (5R,5aS,7R)-2-(4-bromophenyl)-7-isopropenyl-5,5a-dimethyl-5,6,7,8-tetrahydro-4H-benzo[g][1,3]benzothiazole]",> 100,> 100,> 100,> 100,50,> 100,> 100,> 100,> 100,
"C=C(C)[C@@H]1CC=C2c3sc(Nc4ccc(F)cc4)nc3C[C@@H](C)[C@]2(C)C1 [Compound 24, (5R,5aS,7R)—N-(4-fluorophenyl)-7-isopropenyl-5,5a-dimethyl-5,6,7,8-tetrahydro-4H-benzo[g][1,3]benzothiazol-2-amine]",100,> 100,> 100,50,> 100,> 100,> 100,> 100,> 100,
"C=C(C)[C@@H]1CC=C2c3sc(Cc4ccccc4)nc3C[C@@H](C)[C@]2(C)C1 [Compound 3, (5R,5aS,7R)-2-benzyl-7-isopropenyl-5,5a-dimethyl-5,6,7,8-tetrahydro-4H-benzo[g][1,3]benzothiazole]",> 100,> 100,> 100,> 100,> 100,> 100,> 100,> 100,> 100,
